Assay results as given in US11052101B2, “Methods for treating cancer using purine analogs by depleting intracellular ATP” (National Guard Health Affairs, priority 2019, dated 2021).
Entries after “also recorded” stand apart in the source; their conditions may differ.

Key:
primary CLL cells [1] = assay: Western blotting / immunoblotting of apoptosis markers (cleaved PARP, caspases); format: cell-based, human; conditions: for cleaved PARP (apoptosis marker), western blot: 3 uM isoproterenol, 24 hr, IBMX positive control; for apoptosis by immunoblotting with apoptotic markers: 30 uM isoproterenol 12 hrs pre-treatment, 10 uM fludarabine 48 hr
Protocol: Cell death markers for apoptosis (cleaved PARP, cleaved caspase 3 and caspase 9) and autophagy (accumulation of LC3 II) were assessed by western blotting.
[…] Cells were then harvested and examined by immunoblotting with apoptotic markers Cleaved PARP and caspace 9.
Control primary CLL cells ([…]), 10 uM fludarabine (Flud), a combination of both drugs at these concentrations (Flud/Iso), 0.5 uM doxorubicin (Dodo), a combination of 0.5 uM doxorubicin and 30 uM isoproterenol (Dodo/Iso), 0.5 uM mitoxantrone, and a combination of 0.5 uM mitoxantrone and 30 uM isoproterenol and incubated. Cells were than harvested and examined by immunoblotting with the indicated apoptotic markers.

p-CREB = assay: Human phosphokinase array; format: cell-based; conditions: 20 μM for 24 hours, compared to untreated
Protocol: Samples of primary CLL cells were treated in vitro with 20 μM isoproterenol for 24 hours in a human phosphokinase array. In the array each kinase was spotted in duplicate with hybridization signals at the corners serving as controls. Relative levels of protein phosphorylation (normalized intensity for each antibody) were calculated for each untreated and treated sample.

primary CLL cells [2] = assay: CellTiter-Glo ATP-based luminescent assay, intracellular ATP depletion; format: cell-based, human; conditions: for intracellular ATP depletion (luminescence), dose-response: gradient of concentrations, 1 to 20 μM
Protocol: Primary CLL cells were treated with 3 uM isoproterenol (IC50 determined with Cell-titer Glo® assay) for 24 hr. Cell death markers for apoptosis (cleaved PARP, cleaved caspase 3 and caspase 9) and autophagy (accumulation of LC3 II) were assessed by western blotting. The […] phosphodiesterase inhibitor, IBMX, was used as a positive control because it induces apoptosis in CLL B cells.
CellTiter-Glo® Luminescent Cell Viability Assay is a homogeneous method for determining the number of viable cells in culture based on quantitation of the ATP present, an indicator of metabolically active cells.
ATP depletion in CLL cells was measured by the ATP-based luminescent assay CellTiter-Glo®.
Isoproterenol-induced intercellular ATP depletion was determined by the ATP-based luminescent assay CellTiter-Glo®. The efficiency of isoproterenol in depleting intracellular ATP is represented by the dose response curves shown by FIGS. 3B, 3D and 3F respectively.

primary CLL cells [3] = format: cell-based
Protocol: (§1) To assess viability of the treated cells, cells were stained by propidium iodide and analyzed by flow cytometry.
(§2) The PI/flow cytometry assay assesses cell viability using propidium iodide (PI) which is a membrane impermanent dye that is generally excluded from viable cells. It binds to double stranded DNA by intercalating between base pairs.
Primary CLL cells were isolated from three CLL patients and were exposed 10 uM fludarabine (a purine analog) alone or in combination with 30 uM isoproterenol to assess the effects of the drug(s) on cytotoxicity and growth. Induced cell death was assessed by PI staining and flow cytometry.
After 24 hours treatment, the treated cells were stained with the cell-death marker, propidium iodide and analyzed with flow-cytometry to determine % induced cell death.

normal PBMCs = assay: Induced cell death by propidium iodide staining and flow cytometry; format: cell-based, human; conditions: 3 uM
Protocol: as §1, §2
Cells from CLL, AML, and from normal donors were treated with 30 μM isoproterenol, 10 μM fludarabine, or a mixture of both drugs at these concentrations as shown by FIGS. 3A, 3C and 3E respectively.

primary CLL cells [4] = assay: Isoproterenol-induced intracellular cAMP accumulation; format: cell-based, human; conditions: IBMX pre-treatment one hour, then 10 uM for 24 hr; CLL cells compared to normal cells
Protocol: Isoproterenol-induced intracellular cAMP accumulation in normal PBMCs and primary CLL cells was assessed. Cell samples were pre-treated for one hour with phosphodiesterase inhibitor (IBMX) and then with 10 uM isoproterenol for 24 hr.

CLL primary cells = assay: MTT (ATP independent) cell viability assay; format: cell-based, human; conditions: gradient of concentrations
Text: The two assays gave completely different dose-response curves.

Compound	cleaved PARP (apoptosis marker), western blot (primary CLL cells [1])	phosphorylation of p-CREB (p-CREB)	intracellular ATP depletion (primary CLL cells [2]; 1 μM)	depletion of intracellular ATP (primary CLL cells [2]; 30 μM for 12 hours)	sensitivity to isoproterenol induced intracellular ATP depletion (primary CLL cells [2]; CLL primary cells compared with other leukemia subtypes and normal PBMCs)	IC50 (primary CLL cells [2]; Homo sapiens, CLL cell, primary CLL cells, read-out: IC50 determined with Cell-titer Glo assay) [nM]	intracellular ATP depletion (luminescence), dose-response (primary CLL cells [2])	intracellular ATP depletion (luminescence), dose-response (primary CLL cells [2]; listed as Iso)	sensitivity to isoproterenol (ATP depletion) (primary CLL cells [2]; primary CLL cells from a CLL patient at early stage)	cell death, PI staining / flow cytometry (primary CLL cells [3]; 3 uM)	cell death, ATP-independent assay (solid line FIG. 1C) (primary CLL cells [3]; 1 to 20 μM)	cell death, PI staining / flow cytometry (normal PBMCs)	p53 expression (P53)	intracellular cAMP accumulation (primary CLL cells [4])	cell death by MTT assay (CLL primary cells)	apoptosis by immunoblotting with apoptotic markers (primary CLL cells [1])	apoptosis, cleaved PARP (relative pixel density) (primary CLL cells [1]; 30 uM isoproterenol, 10 uM fludarabine)
CC(C)Cn1c(=O)n(C)c(=O)c2[nH]cnc21 [IBMX]	presence of cleaved PARP																
CC(C)NCC(O)c1ccc(O)c(O)c1 (stereo not shown) [isoproterenol, Isoproterenol]	no cleaved PARP	only significantly up-regulated kinase	weak intracellular ATP depletion	more than 80%	highest sensitivity	3000	increased intracellular ATP depletion; also recorded: dose-dependent decrease in luminescence	induces intracellular ATP depletion	lesser sensitivity	did not induce any significant cell death	did not induce cell death	did not induce any significant cell death	doesn't induce any increase in p53 expression	significantly higher accumulation of cAMP	doesn't induce cell death	Apoptosis was not observed	
Nc1nc(F)nc2c1ncn2[C@@H]1O[C@H](CO)[C@@H](O)[C@@H]1O [fludarabine, Fludarabine]																Apoptosis was observed	induced apoptosis
